According to US20220193013A1, “Pharmaceutical Composition for Treatment or Prevention of Multiple Inflammatory Disorders” (priority 2020, published 2022):

Experiments:
[1] = test system: DIO mice (C57BL/6NTac, high fat diet); assay: body weight study in diet-induced obese (DIO) mice, 56 days; assay type: in vivo, mouse
Protocol: This example provides results of a study of DA plus another compound (CQL) on body weight in diet-induced (DIO) mice. Adult C57BL/6NTac mice were fed with a high fat diet (60%). Vehicle group (N=15) were treated with distilled water by gavage BID, CQL (N=15) were treated at 50 mg/kg by gavage BID, and DA (N=15) at a dose of 92.4 mg/kg by gavage BID. The study period was for 56 days+2-3 days testing period afterward. […] Metabolic biomarkers were measured on days 28 and 56. Cytokine analysis on Days 28 and 56. Serum levels of GLP-1, GLP-2, and CCK at 1 h after dosing on Days 1 and 56, and at 2 h after dosing on Day 7 (dosing (>6 h fasting prior to dosing until after blood collection); and serum level of PPY on Day 56.

[2] = test system: air pouch model of inflammation, C57BL/6 mice; assay: murine air pouch model of inflammation (LPS induction); assay type: in vivo, mouse
Protocol: This example provides the results of investigating DA to modulate immune response in a murine air pouch model of inflammation. Eight C57BL/6 mice were assigned to groups for gavage treatment (BID) of controls (distilled water), DA at a dose of 23.1 mg/kg BID (low dose DA), and DA at a dose of 96.4 mg/kg BID (high dose DA). What was measured was infiltrating cell counts with air pouch exudates, IL-6 levels in air pouch exudates by an ELISA assay (R&D Systems Cat. No. M6000B), and multiple cytokine analysis (Mouse 32Plex Kit MilliporeSigma Cat. No. MCYTMAG70PMX32BK). Statistical analysis was done by a one-way ANOVA followed by Tukey's multiple comparison post hoc test for data with normal distribution, Kruskal-Wallis test followed by Dunn's multiple comparison post hoc test for data with skewed distribution, and the ROUT method for identifying outliers.
Duarte et al., Current Protocols in Pharmacology, 5.6.1-5.6.8 Mar. 2012, describes “The subcutaneous air pouch is an in vivo model that can be used to study acute and chronic inflammation, the resolution of the inflammatory response, and the oxidative stress response. Injection of irritants into an air pouch in rats or mice induces an inflammatory response that can be quantified by the volume of exudate produced, the infiltration of cells, and the release of inflammatory mediators. The model presented in this unit has been extensively used to identify potential anti-inflammatory drugs.” It can be used to study localized inflammation without systemic effects. But in this case the drug was administered orally, by gavage BID.
Test administration was 5 ml/kg body weight BID dosing with 8 hour intervals. The air pouch was created in each test BL6 mouse by sc injection of 1.5 ml/mouse of sterile air on day 0 and 1.5 ml/mouse of sterile air on day 3. Compounds (or control distilled water) were administered BID on day −2. LPS (0.75 mg/animal in 1 ml endotoxin free PBS) was administered at hour 0 or one hour after dosing with test compounds. Plasma samples were collected at termination and exudates of the air pouches for all groups. Cell count analysis and IL-6 assays were conducted at the animal facility and plasma and exudate samples were sent out for cytokine analysis. Each group of distilled water control, 23.1 mg/kg DA and 92.4 mg/kg DA had 8 mice each.

healthy mouse = assay: cytokine profile and routes of administration in healthy mouse; assay type: in vivo; conditions: for VEGF (versus controls): p=0.001
Protocol: This example provides results of a study to evaluate the effect of denatonium acetate on a healthy mouse as measured by cytokine profile and routes of administration of DA. The study groups were: (1) Vehicle group, N=12, treated with distilled water, gavage, BID; (2) DA oral low dose group, N=12, treated with DA at a dose of 23.1 mg/kg (salt weight), gavage, BID; (3) DA oral high dose group, N=12, treated with DA at a dose of 92.4 mg/kg (salt weight), gavage, BID; (4) DA IV low dose group, N=12, treated with DA at a dose of 1 mg/kg (salt weight), iv bolus, QD; (5) DA IV high dose group, N=12, treated with ARD-101 at a dose of 3 mg/kg (salt weight), iv bolus, QD.

[3] = DA 92.4 mg/kg gavage BID, compared to vehicle
[4] = DA 92.4 mg/kg, CQL 50 mg/kg, gavage BID

## CC(=O)[O-].CC[N+](CC)(CC(=O)Nc1c(C)cccc1C)Cc1ccccc1 [DA, denatonium acetate]
[1]; DA 92.4 mg/kg gavage BID
  serum glucose levels: did not show a significant effect
[1]; [3]
  daily food intake at Day 14: significantly reduced
  serum CCK levels at Day 56: significantly increased
  serum GLP-1 levels at Days 7 and 56: significantly increased
  serum GLP-2 levels at Day 56: significantly increased
  serum PYY levels at Day 56: significantly increased
  serum insulin level at Day 28: significantly reduced
[1]; DA 92.4 mg/kg gavage BID, compared to vehicle and CQL
  body weight gain at day 57: significantly reduced
[1]; DA 92.4 mg/kg gavage BID, compared to vehicle, no significant difference
  serum LDL levels at days 28 and 56: noticeable decrease
[1]; [4]
  serum HbA1c level at Day 28: significantly reduced
  serum HbA1c level at Day 56: considerably increased
[1]; DA 92.4 mg/kg, CQL 50 mg/kg, gavage BID, compared to vehicle
  daily water intake at Day 28: significantly increased
[1]; day 28
  serum Eotaxin, significance (p) of increase: 0.031
  serum G-CSR, significance (p) of increase: 0.063
  serum IL-6, significance (p) of increase: 0.041
  serum IP-10, significance (p) of increase: 0.013
  serum MIG, significance (p) of increase: no sig
[1]; day 56
  serum Eotaxin, significance (p) of increase: no sig
  serum G-CSR, significance (p) of increase: 0.039
  serum IL-6, significance (p) of increase: no sig
  serum IP-10, significance (p) of increase: no sig
  serum MIG, significance (p) of increase: 0.028
[2]; higher dose of DA
  IL-1β level: significant reduction
  IL-10 level: significant reduction
  IL-17 level: significant reduction
  TNF-1α level: significant reduction
[2]; pre-treated with DA at 96.4 mg/kg BID gavage, ELISA, vs vehicle and lower dose
  IL-6 levels in air pouch exudates: significantly lower
[2]; pre-treated with DA at 96.4 mg/kg BID gavage, vs vehicle and lower dose
  infiltrating cell count in air pouch exudates: significantly lower
Healthy mouse; either iv DA dose (1 or 3 mg/kg iv bolus QD)
  biomarker (cytokine) effects: no biomarker (cytokine) effects
Healthy mouse; higher dose oral DA 92.4 mg/kg BID
  VEGF (versus controls): significant decreases
Healthy mouse; higher dose oral DA 92.4 mg/kg BID, p=0.003
  IL-9 (versus controls): significant decreases
Healthy mouse; higher dose oral DA 92.4 mg/kg BID, p=0.03
  GM-CSF (versus controls): significant decreases
Healthy mouse; higher dose oral DA 92.4 mg/kg BID, p=0.05
  KC (versus controls): significant decreases
Healthy mouse; iv administration only
  side effects: toxic side effects
Healthy mouse; lower dose oral DA 23.1 mg/kg BID
  VEGF (versus controls): significant decreases
Healthy mouse; lower dose oral DA 23.1 mg/kg BID, p=0.003
  G-CSF (versus controls): significant decreases
Healthy mouse; lower dose oral DA 23.1 mg/kg BID, p=0.005
  MCP-1 (versus controls): significant decreases
Healthy mouse; lower dose oral DA 23.1 mg/kg BID, p=0.015
  MIP-2 (versus controls): significant decreases
Healthy mouse; lower dose oral DA 23.1 mg/kg BID, p=0.03
  IL-13 (versus controls): significant decreases
Healthy mouse; lower dose oral DA 23.1 mg/kg BID, p=0.04
  IL-1α (versus controls): significant decreases
